Several values for one entry are separate records, joined by “and”; a condition that tells them apart may be missing. Equal entries are not always repeated. Where two headings read alike, the source gives them in different places. Marks after values point to notes of the source that are not given here.
Key:
Dengue [1] = system: Dengue
Vaccinia [2] = system: Vaccinia
[3] = target: S-adenosylhomocysteine hydrolase (SAHase) (Oryctolagus cuniculus, UniProt A0A5F9DS62); assay: SAHase inhibition (release of free homocysteine); assay type: biochemical; details: SAHase from rabbit erythrocytes; read-out: IC50 versus SAHase
S-adenosylhomocysteine hydrolase (SAHase), sequence (A0A5F9DS62 1-428): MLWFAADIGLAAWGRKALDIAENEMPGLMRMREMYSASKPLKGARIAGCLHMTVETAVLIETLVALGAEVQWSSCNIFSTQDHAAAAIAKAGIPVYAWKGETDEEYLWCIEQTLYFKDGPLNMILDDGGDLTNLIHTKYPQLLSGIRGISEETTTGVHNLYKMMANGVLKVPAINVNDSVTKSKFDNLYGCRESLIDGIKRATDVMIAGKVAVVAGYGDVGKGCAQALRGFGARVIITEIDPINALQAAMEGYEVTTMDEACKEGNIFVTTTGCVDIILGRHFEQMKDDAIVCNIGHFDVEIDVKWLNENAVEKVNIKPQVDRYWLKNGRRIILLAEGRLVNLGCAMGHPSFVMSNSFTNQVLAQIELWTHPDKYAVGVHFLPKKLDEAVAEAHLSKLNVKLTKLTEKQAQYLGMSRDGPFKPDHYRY

Ebola virus [4] = system: Ebola virus
measles virus = assay: microbe, parasite or virus in culture; assay type: cell-based; details: Measles morbillivirus, Vero 76, read-out: drug concentration to reduce viral replication (EC50)
Ebola virus [5] = assay: microbe, parasite or virus in culture; details: Zaire ebolavirus, read-out: EC50 (IC50)
in vitro [6] = details: human
Measles = assay: microbe, parasite or virus in culture; assay type: cell-based; details: Measles morbillivirus, Vero 76
HBV = assay: microbe, parasite or virus in culture; assay type: cell-based, hepatitis B virus
Ebola (Zaire) = assay: microbe, parasite or virus in culture; assay type: cell-based; details: Zaire ebolavirus, Vero
Vaccinia [7] = assay: microbe, parasite or virus in culture; assay type: cell-based, vaccinia virus
in vitro [8] = details: African green monkey
in vitro [9] = details: human; remark: listed apart in the source
NOV = assay: microbe, parasite or virus in culture; assay type: cell-based; details: Norovirus, HG23
Dengue [10] = assay: microbe, parasite or virus in culture; assay type: cell-based
in vitro [11] = details: human; remark: listed apart in the source
HCMV = assay: microbe, parasite or virus in culture; assay type: cell-based, human cytomegalovirus; details: Human betaherpesvirus 5, HFF
in vitro [12] = details: human; remark: listed apart in the source

In the case of `Nc1ncc(Br)c2c1ncn2[C@@H]1C[C@H](CO)[C@@H](O)[C@H]1O` [3-Bromo-3-deazaaristeromycin], the EC50 (Flu A (H1N1)) is reported as > 290 µM, the “SI (CC50/EC50)” value (Flu A (H1N1)) is reported as 0 and the “SI (CC50/EC50)” value (Rift Valley Fever) is reported as 5. The CC50 (MDCK cells) was > 290 µM, the “SI (CC50/EC50)” value (Dengue [1]) was 2 and the “SI (CC50/EC50)” value (Vaccinia [2]) was >1.3. The EC50 (Flu A (H5N1)) was 1.14 µM, the “SI (CC50/EC50)” value (Flu A (H5N1)) was >260 and the EC50 (Flu A (H3N2)) was > 290 µM. For the same molecule, the “SI (CC50/EC50)” value (Flu A (H3N2)) was 0, the EC50 (Influenza B) was 0.84 µM and the “SI (CC50/EC50)” value (Influenza B) was >340. For the same molecule, the “SI (CC50/EC50)” value (Tacaribe) was 7.9.
In the case of `Nc1ncc(Br)c2c1ncn2[C@@H]1C=C(CO)[C@@H](O)[C@H]1O` [3-Bromo-3-deazaneplanocin], the EC50 (Flu A (H1N1)) is reported as < 0.094 µM, the “SI (CC50/EC50)” value (Flu A (H1N1)) is reported as >2345 and the “SI (CC50/EC50)” value (Punta Toro) is reported as 140. For the same molecule, the IC50 [3] was 0.0027 µM, the “SI (CC50/EC50)” value (Pichinde) was 24 and the “SI (CC50/EC50)” value (Rift Valley Fever) was 250. The CC50 (CRFK cells) was 94^b, the CC50/EC50 (Ebola) was 3 and the EC50 (Ebola) was 3.3 µM. The “MCC (minimum concentration causing microscopically detectable alteration of normal cell morphology)” value (Vero cells) was >100^d, the “SI (CC50/EC50)” value (Dengue [1]) was 57 and the “SI (CC50/EC50)” value (Junin) was 160. For the same molecule, the EC50 (Flu A (H5N1)) was 0.94 µM, the “SI (CC50/EC50)” value (Flu A (H5N1)) was >310 and the EC50 (Flu A (H3N2)) was 1.55 µM. For the same molecule, the “SI (CC50/EC50)” value (Flu A (H3N2)) was >190, the EC50 (Influenza B) was > 0.16 µM and the “SI (CC50/EC50)” value (Influenza B) was <7. The “SI (CC50/EC50)” value (Feline herpes) was 470, the “SI (CC50/EC50)” value (Tacaribe) was >2000 and the CC50/EC50 (Marburg) was 1100. The EC50 (Marburg) was 0.009 µM, the CC50 (Akata cells) was 0.13^b and the “SI (CC50/EC50)” value (Epstein Barr) was <4.3.
For `Nc1nccc2c1ncn2[C@@H]1C[C@@H](CO)[C@H](O)[C@@H]1O` [carbocyclic 3-deazaadenosine, reference compound], the “EC90 (IC90; concentration inhibiting viral replication by 90%)” value (Ebola virus [4]) was > 126.5 µM and 240.3 µM.
With `Nc1nccc2c1ncn2C1=C[C@H](CO)[C@@H](O)[C@H]1O` [“D”-3-Deazaisoneplanocin, D-1′,6′-iso-3-deazaneplanocin] the EC50 (measles virus) was < 0.1 µg/mL, the EC50 (Ebola virus [5]) was < 0.32 µM and the CC50/EC50 (Ebola virus [4]) was >313 µM. For the same molecule, the “EC90 (IC90; concentration inhibiting viral replication by 90%)” value (Ebola virus [4]) was 74.1 µM and the CC50 (in vitro [6]) was > 100 µM.
For `Nc1ncnc2c1ncn2C1=C[C@H](CO)[C@@H](O)[C@H]1O` [“D”-Isoneplanocin, (1R,2S,5R)-3-(6-Amino-9H-purin-9-yl)-5-(hydroxymethyl)cyclopent-3-ene-1,2-diol], the EC50 (Measles) was < 0.38 µM, the EC50 (HBV; Hepatitis B virus) was 7.2 µM and the EC90 (HBV; Hepatitis B virus) was 35 µM. For the same molecule, the EC50 (Ebola (Zaire)) was 0.38 µM, the EC50 (Vaccinia [7]; Orthopoxvirus vaccinia, HFF) was 10.1 µM and the EC90 (Vaccinia [7]; Orthopoxvirus vaccinia, HFF) was > 300 µM. For the same molecule, the CC50 (in vitro [8]) was 1.3 µM, the CC50 (in vitro [9]) was > 100 µM and the EC50 (NOV) was 0.784 µM. For the same molecule, the EC90 (NOV) was 8.88 µM, the EC50 (Dengue [10]) was 1.5 µM and the EC50 (Dengue [10]; Dengue virus, Vero 76) was 1.1 µM. For the same molecule, the CC50 (in vitro [11]) was > 100 µM, the EC50 (HCMV) was 0.11 µM and the EC90 (HCMV) was > 12 µM.
For `Nc1nccc2c1ncn2C1=C[C@@H](CO)[C@H](O)[C@@H]1O` [“L”-3-Deazaisoneplanocin, L-1′,6′-iso-3-deazaneplanocin], the EC50 (Ebola virus [5]) was < 0.32 µM, the CC50/EC50 (Ebola virus [4]) was >313 µM and the “EC90 (IC90; concentration inhibiting viral replication by 90%)” value (Ebola virus [4]) was < 0.32 µM. The CC50 (in vitro [6]) was > 100 µM.
For `Nc1ncnc2c1ncn2C1=C[C@@H](CO)[C@H](O)[C@@H]1O` [“L”-Isoneplanocin, (1S,2R,5S)-3-(6-Amino-9H-purin-9-yl)-5-(hydroxymethyl)cyclopent-3-ene-1,2-diol], the EC50 (Measles) was 0.72 µM, the Antiviral activity (HBV) was “inactive” and the EC50 (Ebola (Zaire)) was 0.76 µM. The Antiviral activity (Vaccinia [7]) was “inactive”, the CC50 (in vitro [8]) was 11.4 µM and the EC50 (NOV) was 11 µM. For the same molecule, the EC90 (NOV) was 89 µM, the CC50 (in vitro [12]) was > 300 µM and the EC50 (Dengue [10]) was 5.7 µM. For the same molecule, the EC50 (Dengue [10]; Dengue virus, Vero 76) was 6.1 µM, the CC50 (in vitro [11]) was > 300 µM and the EC50 (HCMV) was 3.7 µM. For the same molecule, the EC90 (HCMV) was 6.86 µM.

From patent publication US10227373B2 (priority 2014, dated 2019)
